Usually Emax stands for the maximal effect, on the per cent scale that the assay sets. A word on the IC50: it is the concentration needed to halve the response being measured. Low readings indicate higher potency, high ones lower potency.

Calls of active or inactive are those of the source. The rule behind the calls is not given here.

This is an account of results in ChEMBL document CHEMBL4184093, “Effects of newly synthetized isoquinoline derivatives on rat uterine contractility and ROCK II activity” (Bioorg Med Chem Lett, 2018).

Chain of Rho-associated protein kinase 2 (Homo sapiens) (O75116 whole entry, looked up): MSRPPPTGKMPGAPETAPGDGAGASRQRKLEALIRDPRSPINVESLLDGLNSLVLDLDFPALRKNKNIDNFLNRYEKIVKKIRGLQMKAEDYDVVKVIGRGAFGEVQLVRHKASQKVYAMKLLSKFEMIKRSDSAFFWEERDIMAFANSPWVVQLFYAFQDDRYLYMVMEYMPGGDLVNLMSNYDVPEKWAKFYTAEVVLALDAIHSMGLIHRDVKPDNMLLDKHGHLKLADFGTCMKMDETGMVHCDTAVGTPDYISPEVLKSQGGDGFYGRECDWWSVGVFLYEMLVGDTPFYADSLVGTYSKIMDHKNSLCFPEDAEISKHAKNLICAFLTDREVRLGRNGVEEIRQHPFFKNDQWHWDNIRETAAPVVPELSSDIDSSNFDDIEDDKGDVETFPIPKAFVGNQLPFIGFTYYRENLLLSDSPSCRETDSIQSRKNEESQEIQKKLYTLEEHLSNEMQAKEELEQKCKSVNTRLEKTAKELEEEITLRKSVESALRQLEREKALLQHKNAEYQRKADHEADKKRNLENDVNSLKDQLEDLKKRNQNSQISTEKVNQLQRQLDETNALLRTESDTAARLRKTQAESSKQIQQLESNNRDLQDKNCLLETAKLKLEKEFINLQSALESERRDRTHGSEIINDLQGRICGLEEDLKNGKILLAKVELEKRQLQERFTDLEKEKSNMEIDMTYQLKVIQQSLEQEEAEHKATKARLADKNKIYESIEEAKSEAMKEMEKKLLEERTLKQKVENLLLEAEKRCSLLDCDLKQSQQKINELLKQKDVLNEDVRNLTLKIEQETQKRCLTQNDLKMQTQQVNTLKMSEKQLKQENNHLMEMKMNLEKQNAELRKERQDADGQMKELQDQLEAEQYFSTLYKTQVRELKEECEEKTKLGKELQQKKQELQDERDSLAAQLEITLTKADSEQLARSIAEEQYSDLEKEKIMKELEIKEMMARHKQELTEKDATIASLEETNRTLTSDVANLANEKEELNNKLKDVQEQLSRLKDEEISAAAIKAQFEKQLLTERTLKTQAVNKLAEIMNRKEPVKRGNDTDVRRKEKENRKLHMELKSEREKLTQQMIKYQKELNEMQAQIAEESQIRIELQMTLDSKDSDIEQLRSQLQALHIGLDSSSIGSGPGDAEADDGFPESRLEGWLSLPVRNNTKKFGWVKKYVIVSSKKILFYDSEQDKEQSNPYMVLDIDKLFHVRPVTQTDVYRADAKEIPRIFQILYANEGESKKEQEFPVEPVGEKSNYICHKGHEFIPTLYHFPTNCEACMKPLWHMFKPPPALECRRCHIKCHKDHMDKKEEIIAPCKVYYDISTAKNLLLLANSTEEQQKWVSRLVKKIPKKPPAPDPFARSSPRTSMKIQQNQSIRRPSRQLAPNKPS

The test system of the first assay is Uterus. Briefly: Inhibition of oxytocin-induced uterus contraction in non-pregnant Sprague-Dawley rat measured for 300 secs. It counts as functional, tissue-based.
The molecule `COc1cc2c(cc1OC)C(C(CO)COC(=O)c1ccccc1)N(C(=S)Nc1ccccc1)CC2` (stereo not drawn) returned an Emax of 83.5% and an IC50 of 1190 nM.
The like results for `CCOc1cc2c(cc1OCC)CN(C1CCCCC1O)CC2` (stereo not drawn) were, in that order, 48% and 37.1 nM.
The like results for `COc1ccc(CCNC2CCCCC2O)cc1OC` (stereo not drawn) were, in that order, 51.7% and 98.1 nM.
The like results for `CCOc1cc2c(cc1OCC)C1C(CO)CS/C(=N\c3ccc(C)cc3)N1CC2` (stereo not drawn) were, in that order, 82.5% and 1170 nM.
As to `COc1cc2c(cc1OC)C(C(CO)CO)N(C(=O)c1ccc(C(F)(F)F)cc1)CC2` (stereo not drawn), the Emax came out at 66.4% and inhibition was half-maximal at 263 nM (IC50).
Turning to `COc1cc2c(cc1OC)C1C(Cc3ccccc3)CN1CC2` (stereo not drawn), the Emax came out at 57.2% and the IC50 came to 788 nM.
In turn, `COc1cc2c(cc1OC)C(C(CO)Cc1ccccc1)NCC2` (stereo not drawn) came in with an Emax of 76.6% and an IC50 of 723 nM.
The corresponding values for `CCOc1ccc(/C=C2\NCCc3cc(OCC)c(OCC)cc32)cc1OCC` [DROTAVERINE] are 88.8% and 1940 nM.
On to `C[C@@H](N)[C@H]1CC[C@H](C(=O)Nc2ccncc2)CC1` [Y-27632], for which the maximal effect (Emax) came to 82.3% and it took 505 nM to reach half-maximal inhibition (IC50).
`COc1cc2c(cc1OC)C(C(CO)CO)N(C1CCCC1)CC2` (stereo not drawn) showed a maximal response (Emax) of 54.5% and an IC50 of 84.5 nM.
The molecule `CCOc1cc2c(cc1OCC)C(CCO)N(C(=S)Nc1cccc(C(F)(F)F)c1)CC2` (stereo not drawn) had an Emax of 84.7% and an IC50 of 1080 nM.
The like results for `COc1cc2c(cc1OC)C1C(C)CN1CC2` (stereo not drawn) were, in that order, 43.7% and 8.24 nM.
The like results for `COc1cc2c(cc1OC)C(C1CCc3nc(N4CCOCC4)[nH]c(=O)c3C1)=NCC2` (stereo not drawn) were, in that order, 47.3% and 24.2 nM.
As for `COc1cc2c(cc1OC)C1C(COC(=O)Nc3ccccc3)CN1CC2` (stereo not drawn), the Emax was 54.5% and inhibition was half-maximal at 495 nM (IC50).
The corresponding values for `COc1cc2c(cc1OC)C(C(CO)CO)N(C(=S)Nc1ccccc1)CC2` (stereo not drawn) are 52.5% and 158 nM.
The like results for `COc1cc2c(cc1OC)C(CC#N)N(C(=O)Nc1cccc(C(F)(F)F)c1)CC2` (stereo not drawn) were, in that order, 72.2% and 1250 nM.
The corresponding values for `C#CC[N+]12CCc3cc(OC)c(OC)cc3C1C(CO)C2` (stereo not drawn) are 54.5% and 32.2 nM.
Turning to `O=S(=O)(c1cccc2cnccc12)N1CCCNCC1` [FASUDIL], the Emax was 87.4% and the IC50 was 781 nM.
The molecule `COc1ccc(CCNC(=O)C(C)(C)C)cc1OC` showed an Emax of 52.8% and an IC50 of 191 nM.
The corresponding values for `CCOc1ccc(CCN(CCO)C2CCCCC2O)cc1OCC` (stereo not drawn) are 46.3% and 41.8 nM.
The like results for `COc1ccc(Cc2nccc3cc(OC)c(OC)cc23)cc1OC` [PAPAVERINE] were, in that order, 98.5% and 420 nM.
The like results for `COc1cc2c(cc1OC)C1CCO/C(=N\Cc3ccccc3)N1CC2` (stereo not drawn) were, in that order, 55.1% and 522 nM.
Take `COc1cc2c(cc1OC)C1(C)N(CC2)C(c2ccccc2)=NN1c1ccc(Cl)cc1` (stereo not drawn): the Emax stood at 53.2% and the IC50 came out at 258 nM.
Consider `COc1ccc(CC[N+](C)(CCO)C2CCCCC2)cc1OC` (stereo not drawn), for which the Emax amounted to 49.6% and 18.9 nM corresponded to half-maximal inhibition (IC50).
Take `COc1cc2c(cc1OC)C(C(CO)COC(=O)c1ccccc1)N(CCC#N)CC2` (stereo not drawn): the Emax stood at 53.3% and the 50% inhibitory concentration (IC50) is 278 nM.
The corresponding values for `COc1cc2c(cc1OC)C(c1ccccc1)N(C1CCCC1O)CC2` (stereo not drawn) are 58.8% and 610 nM.
The like results for `COc1cc2c(cc1OC)C1C(CO)COC(=N)N1CC2` (stereo not drawn) were, in that order, 50.4% and 13.3 nM.
The corresponding values for `COc1cc2c(cc1OC)C(C)N(C1CCCCC1O)CC2` (stereo not drawn) are 45.6% and 90.2 nM.

A further assay addresses Rho-associated protein kinase 2 (Homo sapiens) (UniProt O75116). Put plainly: Inhibition of ROCK2 (unknown origin) at 200 uM using MYPT1 as substrate after 30 mins by immunoassay.
For the molecule `CCOc1cc2c(cc1OCC)CN(C1CCCCC1O)CC2` (stereo not drawn), the “ROCK2 inhibition activity call (active/not active)” value was “inactive”.
Still for that read-out and setting: with `COc1ccc(CCNC2CCCCC2O)cc1OC` (stereo not drawn) the entry was “inactive”; with `COc1cc2c(cc1OC)C(C(CO)CO)N(C1CCCC1)CC2` (stereo not drawn), “inactive”; with `COc1cc2c(cc1OC)C1C(C)CN1CC2` (stereo not drawn), “inactive”.
On the same count and under the same terms, with `COc1cc2c(cc1OC)C(C1CCc3nc(N4CCOCC4)[nH]c(=O)c3C1)=NCC2` (stereo not drawn) the entry was “inactive”; with `COc1cc2c(cc1OC)C(C(CO)CO)N(C(=S)Nc1ccccc1)CC2` (stereo not drawn), “Active”; with `C#CC[N+]12CCc3cc(OC)c(OC)cc3C1C(CO)C2` (stereo not drawn), “inactive”.
`CCOc1ccc(CCN(CCO)C2CCCCC2O)cc1OCC` (stereo not drawn): the “ROCK2 inhibition activity call (active/not active)” value is “Active”.
Same read-out and setting: to `COc1ccc(CC[N+](C)(CCO)C2CCCCC2)cc1OC` (stereo not drawn) belongs “inactive”.
In the case of `COc1cc2c(cc1OC)C1C(CO)COC(=N)N1CC2` (stereo not drawn), the “ROCK2 inhibition activity call (active/not active)” value is “inactive”.
Still for that read-out and setting: with `COc1cc2c(cc1OC)C(C)N(C1CCCCC1O)CC2` (stereo not drawn) the entry was “inactive”.

Another assay relates to Uterus. Put plainly: Inhibition of oxytocin-induced uterus contraction in 20 days pregnant Sprague-Dawley rat at 10^-10 to 10^-5 M measured for 300 secs. It counts as functional, tissue-based.
Consider `COc1cc2c(cc1OC)C(C(CO)CO)N(C(=S)Nc1ccccc1)CC2` (stereo not drawn), for which the inhibition entry is “Active”.
Still for that read-out and setting: to `O=S(=O)(c1cccc2cnccc12)N1CCCNCC1` [FASUDIL] belongs “Active”.
On the same count and under the same terms, with `CCOc1ccc(CCN(CCO)C2CCCCC2O)cc1OCC` (stereo not drawn) the entry was “Active”.

A further assay concerns Uterus. Put plainly: Inhibition of oxytocin-induced uterus contraction in Sprague-Dawley rat during parturition period at 10^-10 to 10^-5 M measured for 300 secs. It counts as functional, tissue-based.
On to `COc1cc2c(cc1OC)C(C(CO)CO)N(C(=S)Nc1ccccc1)CC2` (stereo not drawn), for which the inhibition result is “Active”.
Still for that read-out and setting: with `O=S(=O)(c1cccc2cnccc12)N1CCCNCC1` [FASUDIL] the entry was “Active”; with `CCOc1ccc(CCN(CCO)C2CCCCC2O)cc1OCC` (stereo not drawn), “Active”.
